{"source": "patent US11618880B2", "about": "“Compositions comprising bacterial strains and use thereof in controlling pathogenic microorganisms” (Better Air International Limited, priority 2018, dated 2023)", "assay_in_all_cases": "Agar well diffusion assay, antagonism of molds", "assay_type_in_all_cases": "cell-based", "details_in_all_cases": "PDA plates, 25° C. 72 hours", "key": {"[1]": {"test_system": "Alternaria alternata (Fries) Keissler (ATCC MYA-4642)", "procedure": "(§1) The agar well diffusion assay was performed to evaluate the antagonistic activity of B. amyloliquefaciens 298 against the growth of pathogenic bacteria including Escherichia coli ATCC 22922, Pseudomonas aeruginosa, B. cereus ATCC 27348, Staphylococcus aureus ATCC 11335, Salmonella Typhimurium ATCC 14028 and Listeria innocua ATCC 3586. […] Brain Heart Infusion (BHI) Agar was used for the antagonism against pathogenic microorganisms while the Potato Dextrose Agar (PDA) was used for evaluation against molds. Reference pathogens were prepared using BHI broth at 37° C. for 18 hours while B. amyloliquefaciens 298 was grown using LB broth at 37° C. for 18 hours. Molds were prepared using PDA at 25° C. with 85% HR for 7 days. Mold spores, pathogens and B. amyloliquefaciens 298 were harvested and resuspended in PBS. Pathogens and B. amyloliquefaciens 298 were adjusted to an optical density of 0.2 and 100 uL of pathogen suspended in PBS was spread on BHI agar plates. The same amount of mold spore suspension was inoculated on PDA. Wells were made in all the plates and 20 μL of B. amyloliquefaciens 298 suspensions were inoculated in the wells while the BHI plates were incubated at 37° C. for 24 hours and PDA plates at 25° C. for 72 hours."}, "[2]": {"test_system": "Cladosporium sphaerospermum Penzig (ATCC MYA-4645)", "procedure": "as §1"}, "[3]": {"test_system": "Penicillium chrysogenum Thom (ATCC MYA-4644)", "procedure": "as §1"}}, "data": [{"smiles": "OO", "note": "[Hydrogen peroxide 10%, hydrogen peroxide]", "values": [{"measurement": "Inhibition zone, Alternaria alternata (Fries) Keissler (ATCC MYA-4642)", "setting": "[1]", "result": 8, "unit": "mm"}, {"measurement": "Inhibition zone, Cladosporium sphaerospermum Penzig (ATCC MYA-4645)", "setting": "[2]", "result": 12, "unit": "mm"}, {"measurement": "Inhibition zone, Penicillium chrysogenum Thom (ATCC MYA-4644)", "setting": "[3]", "result": 10, "unit": "mm"}]}]}
